{"source": "patent US20230226034A1", "about": "“PROPHYLACTIC OR THERAPEUTIC AGENT FOR PHOTODERMATOSIS” (MITSUBISHI TANABE PHARMA CORPORATION, priority 2020, published 2023)", "key": {"[1]": {"test_system": "cyclobutane pyrimidine dimer (CPD)", "experiment": "UV-A irradiated mouse photoaging model: skin histology, CPD immunostaining", "assay_type": "in vivo", "text": "(§1) Male albino hairless mice (strain name: Hos:HR-1, Hoshino Laboratory Animals Inc.) were used. The mice were divided into groups so that the body weight of each group was homogenous, and from the next day, the dorsal skin of the mice was irradiated with an incremental amount of ultraviolet A at the frequency of five times a week for 8 weeks to induce photoaging in the groups other than the untreated group. The UV-A irradiation schedule was based on the report by Minami et al. (J Nutrition Biochem 2009, 20, 389).\n(§2) Compound B: The required amount was weighed as free-form equivalent, and suspended in 0.5% MC to achieve the target concentration, and orally administered at a volume of 0.1 mL/10 g (body weight) at 3 mg/kg once daily for 8 weeks.\n(§3) HP-228 (reference control, melanocortin receptor-activating peptide): The required amount of free-form was weighed and dissolved in PBS to achieve the target concentration. 0.1 mL/10 g (body weight) was injected intraperitoneally at 3 mg/kg once daily for 8 weeks.\nSkin histological examination (endpoint c): Skin samples were fixed in 10% neutral buffered formalin and paraffin sections were prepared. DNA damage induced by UV-A was detected by enzyme-antibody immunostaining using anti-cyclobutane pyrimidine dimer (CPD) antibody (Cosmo Bio)."}, "[2]": {"test_system": "Male albino hairless mice (Hos:HR-1)", "experiment": "UV-A irradiated mouse photoaging model: skin wrinkles by visual observation", "assay_type": "in vivo", "conditions": "3 mg/kg once daily for 8 weeks (compound B oral, HP-228 intraperitoneal); score 0 to 3; FIG. 3", "text": "as §1, §2, §3\nEvaluation of skin wrinkles by visual observation (evaluation item a): The state of skin wrinkles was evaluated on a four-step scale from score 0 (fine wrinkles) to 3 (deep and coarse wrinkles) at a frequency of once a week for 8 weeks after UV-A irradiation.\nThe skin wrinkle score was tested by Mann-Whitney's U test adjusted for multiplicity, and the significance level was set at 0.05. […]"}, "type I collagen": {"test_system": "type I collagen", "experiment": "UV-A irradiated mouse photoaging model: type I collagen content in the skin", "assay_type": "in vivo", "conditions": "3 mg/kg once daily for 8 weeks (compound B oral, HP-228 intraperitoneal); FIG. 4", "text": "as §1, §2, §3\nQuantification of type I collagen content in the skin (evaluation item b): Mice were euthanized 8 weeks after UV-A irradiation, and their back skin was collected. Homogenates were prepared by adding acetic acid and pepsin to the collected skin. The amount of collagen in the skin homogenate, which was reduced by UV-A, was measured using the Mouse Collagen Type I ELISA Kit. […]"}, "[3]": {"test_system": "Male C57BL/6JHamSlc-Ay/+ mice", "experiment": "Effect on darkening of mouse body hair", "assay_type": "in vivo", "conditions": "day 6", "protocol": "Male C57BL/6JHamSlc-Ay/+ mice (Japan SLC, Inc.) were used. The test was performed with 29- or 30-days old mice, in order to use each individual whose hair cycle was at the anagen stage. The hair on the back of each of the mice was shaved with a clipper before the starting of administration, and any individual with no bad conditions such as nicks and maculae on the skin was selected, and subjected to grouping based on a group configuration shown in Table 3 by performing a simulation method so that the body weights in respective groups were uniform. Administration (also including preparation) of the test substance and evaluation of body hair were performed separately by respective different experimenters, and such evaluation was performed in a blinded manner. The starting date of administration was set to day 0, and the test substance was administered once daily for 6 days (day 0 to day 5).\nThe compound was orally administered at a volume of 0.1 mL/10 g (body weight).\nNDP-αMSH (control drug): a required amount of compound was weighed as free-form equivalent, and dissolved in Dulbecco's phosphate-buffered saline (PBS) at a concentration of 0.4 mg/mL. The drug was subcutaneously administered at a volume of 0.05 mL/10 g (body weight).\nEvaluation and sampling were performed on day 6. The mice were euthanized by cervical dislocation, thereafter subjected to hair shaving of each back with a clipper, and each individual was rated as positive (+) or negative (−) by the degree of darkening of body hair.\nA statistical analysis was performed by SAS, and the significance level was 0.05. A 0.5% MC administration group and an NDP-αMSH group were analyzed by Fisher's exact probability test. […] The fixed-order test was performed by Fisher's exact probability test from a higher dose, and, if significant, performing analysis at a lower dose."}, "[4]": {"test_system": "tyrosinase-related protein 1 (TYRP1)", "experiment": "Expression of melanin-related gene TYRP1 in skin, clinical trial in healthy subjects", "assay_type": "in vivo, human", "conditions": "back skin mRNA, next day versus day before administration"}, "[5]": {"test_system": "Mouse melanoma derived cell line B16F1 cells", "experiment": "Melanin production assay in mouse melanoma cell line", "quoted_text": "The following procedure was used to evaluate the effect of a MC1R agonist on melanin production from mouse melanoma cell lines.\nMouse melanoma derived cell line B16F1 cells were used in measurement of melanin production. B16F1 cells were cultured by using Dulbecco's Modified Eagle Medium (DMEM) containing 10% fetal bovine serum (FBS) and 100 U/mL Penicillin-Streptomycin.\nOne experiment was performed in triplicate, and three independent experiments were performed.\nIn consideration of the correspondence of each experiment, the difference in % value from a negative control was determined by performing a two-way Dunnett's test based on each group and the number of experiments as factors. The significance level here was 5% on both sides. Such analysis was performed with SAS."}, "skin of healthy subjects": {"test_system": "skin of healthy subjects", "conditions": "FIG. 2"}, "[6]": {"test_system": "premelanosome protein (PMEL)", "experiment": "Expression of melanin-related gene PMEL in skin, clinical trial in healthy subjects", "assay_type": "in vivo, human", "conditions": "back skin mRNA, next day versus day before administration"}, "[7]": {"conditions": "grade + (Slight), dorsal skin, UVA irradiated, 10 animals, 3 mg/kg for 8 weeks"}, "[8]": {"conditions": "grade ± (Minimal), dorsal skin, UVA irradiated, 10 animals, 3 mg/kg for 8 weeks"}, "[9]": {"conditions": "0.003 mg/kg p.o. once daily for 6 days"}, "[10]": {"conditions": "0.03 mg/kg p.o. once daily for 6 days"}, "[11]": {"conditions": "0.3 mg/kg p.o. once daily for 6 days"}, "[12]": {"conditions": "3 mg/kg p.o. once daily for 6 days"}}, "note": "Marks after values point to notes of the source that are not given here.", "data": [{"smiles": "CCO[C@H]1CC[C@H](N2C[C@@H](c3ccc(OC)cc3)[C@](OC)(C(=O)N3C[C@H](c4ccc(C(F)(F)F)cc4N4CCC(C(=O)O)CC4)C[C@H]3COC)C2)CC1.Cl.Cl", "note": "(relative stereo) [Compound B, 1-{2-[(3S,5S)-1-[(3R,4R)-1-(trans-4-ethoxycyclohexyl)-3-methoxy-4-(4-methoxyphenyl)pyrrolidin-3-yl]carbonyl}-5-(methoxymethyl)pyrrolidin-3-yl]-5-(trifluoromethyl)phenyl piperidine-4-carboxylic acid, 2 hydrochloride]", "values": [{"measurement": "Epidermal CPD staining", "setting": "[1]; 3 mg/kg once daily for 8 weeks (compound B oral, HP-228 intraperitoneal)", "value": "tended to be less positive than in the vehicle control group"}, {"measurement": "Number of animals, CPDs immunostaining, Cells in dermis, grading +", "setting": "[1]; [7]", "value": 10}, {"measurement": "Number of animals, CPDs immunostaining, Epidermis (cell nuclei), grading +", "setting": "[1]; [7]", "value": 1}, {"measurement": "Number of animals, CPDs immunostaining, Hair follicles in dermis (cell nuclei), grading +", "setting": "[1]; [7]", "value": 1}, {"measurement": "Number of animals, CPDs immunostaining, Sebaceous glands (cell nuclei), grading +", "setting": "[1]; [7]", "value": 9}, {"measurement": "Number of animals, CPDs immunostaining, Epidermis (cell nuclei), grading ++", "setting": "[1]; grade ++ (Moderate), dorsal skin, UVA irradiated, 10 animals, 3 mg/kg for 8 weeks", "value": 6}, {"measurement": "Number of animals, CPDs immunostaining, Epidermis (cell nuclei), grading +++", "setting": "[1]; grade +++ (Severe), dorsal skin, UVA irradiated, 10 animals, 3 mg/kg for 8 weeks", "value": 3}, {"measurement": "Number of animals, CPDs immunostaining, Hair follicles in dermis (cell nuclei), grading ±", "setting": "[1]; [8]", "value": 9}, {"measurement": "Number of animals, CPDs immunostaining, Other tissues (incl. cytoplasm in sebaceous glands), grading ±", "setting": "[1]; [8]", "value": 10}, {"measurement": "Number of animals, CPDs immunostaining, Sebaceous glands (cell nuclei), grading ±", "setting": "[1]; [8]", "value": 1}, {"measurement": "skin wrinkle scores", "setting": "[2]", "value": "lower or tended to be lower than those of the vehicle control group"}, {"measurement": "amount of type I collagen in the skin", "setting": "type I collagen", "value": "significantly higher than that of the vehicle control group"}]}, {"smiles": "COC[C@H]1CN(C(=O)[C@]2(F)CN(C3CCCC3)C[C@H]2c2ccc(OC)cc2)C[C@@H]1c1ccc(C(F)(F)F)cc1N1CCC(C(=O)O)CC1", "note": "[Compound A, Cocrystal of 1-{2-[(3S,4R)-1-{[(3R,4R)-1-cyclopentyl-3-fluoro-4-(4-methoxyphenyl)pyrrolidin-3-yl]carbonyl}-4-(methoxymethyl)pyrrolidin-3-yl]-5-(trifluoromethyl)phenyl}piperidine-4-carboxylic acid with phosphoric acid]", "values": [{"measurement": "Number of mice Negative (darkening of body hair)", "setting": "[3]; [9]", "value": 7}, {"measurement": "Number of mice Positive (darkening of body hair)", "setting": "[3]; [9]", "value": 0}, {"measurement": "Number of mice Negative (darkening of body hair)", "setting": "[3]; [10]", "value": 7}, {"measurement": "Number of mice Positive (darkening of body hair)", "setting": "[3]; [10]", "value": 0}, {"measurement": "Number of mice Negative (darkening of body hair)", "setting": "[3]; [11]", "value": 0}, {"measurement": "Number of mice Positive (darkening of body hair)", "setting": "[3]; [11]", "value": "7**"}, {"measurement": "Number of mice Negative (darkening of body hair)", "setting": "[3]; [12]", "value": 0}, {"measurement": "Number of mice Positive (darkening of body hair)", "setting": "[3]; [12]", "value": "7**"}, {"measurement": "TYRP1 Rate of changes (times)", "setting": "[4]; 30 mg single oral dose", "value": 1.3, "unit": "times"}, {"measurement": "TYRP1 Rate of changes (times)", "setting": "[4]; 100 mg single oral dose", "value": 1.37, "unit": "times"}, {"measurement": "TYRP1 Rate of changes (times)", "setting": "[4]; 300 mg single oral dose", "value": 2.14, "unit": "times"}, {"measurement": "TYRP1 Rate of changes (times)", "setting": "[4]; 600 mg single oral dose", "value": 2.65, "unit": "times"}, {"measurement": "melanin production", "setting": "[5]; B16F1 cells, 3 days, FIG. 1", "value": "induced melanin production in a concentration-dependent manner"}, {"measurement": "EC50", "setting": "[5]; Mus musculus, B16-F1, 72 h, read-out: EC50 value, melanin production", "value": 0.013, "unit": "nM"}, {"measurement": "increase in melanin density of the skin", "setting": "skin of healthy subjects; 450 mg orally once daily for 14 days, subjects Fitzpatrick Type V", "value": "no increase in melanin density"}, {"measurement": "increase in melanin density of the skin: time of maximum", "setting": "skin of healthy subjects; 150 and 300 mg orally once daily for 14 days", "value": "maximum on day 15"}, {"measurement": "PMEL Rate of changes (times)", "setting": "[6]; 30 mg single oral dose", "value": 1.22, "unit": "times"}, {"measurement": "PMEL Rate of changes (times)", "setting": "[6]; 100 mg single oral dose", "value": 1.77, "unit": "times"}, {"measurement": "PMEL Rate of changes (times)", "setting": "[6]; 300 mg single oral dose", "value": 2.49, "unit": "times"}, {"measurement": "PMEL Rate of changes (times)", "setting": "[6]; 600 mg single oral dose", "value": 3.54, "unit": "times"}]}]}
